pEC50: −log10 of the molar value.

A word on the pEC50: it is −log10 of the EC50, conventionally taken in molar units.

Sequence of Bcl-2-like protein 1 (Q07817 whole entry): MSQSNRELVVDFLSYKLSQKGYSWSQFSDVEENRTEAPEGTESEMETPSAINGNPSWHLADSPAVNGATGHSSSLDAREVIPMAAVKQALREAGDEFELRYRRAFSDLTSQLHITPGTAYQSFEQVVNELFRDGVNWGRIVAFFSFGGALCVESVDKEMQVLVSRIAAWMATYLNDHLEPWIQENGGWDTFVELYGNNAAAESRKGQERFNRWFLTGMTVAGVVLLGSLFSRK

The experiment has as its target Bcl-2-like protein 1 (Homo sapiens, UniProt Q07817). In words: Inhibition of Bcl-XL.
Take `CN(C)CCC(CSc1ccccc1)Nc1ccc(S(=O)(=O)NC(=O)c2ccc(N3CCN(Cc4ccccc4-c4ccc(F)cc4)CC3)cc2)cc1[N+](=O)[O-]` (stereo unspecified): the pEC50 is 6.89. Molecule `COc1ccccc1CN1CCN(c2ccc(C(=O)NS(=O)(=O)c3ccc(NC(CCN(C)C)CSc4ccccc4)c([N+](=O)[O-])c3)cc2)CC1` (stereo unspecified) had a pEC50 of 6.41.

In turn, `CN(C)CCC(CSc1ccccc1)Nc1ccc(S(=O)(=O)NC(=O)c2ccc(N3CCC(=Cc4cccnc4)CC3)cc2)cc1[N+](=O)[O-]` (stereo unspecified) gave a pEC50 of 5.72.

`CN(C)CCC(CSc1ccccc1)Nc1ccc(S(=O)(=O)NC(=O)c2ccc(N3CCN(Cc4ccccc4-c4ccc(S(C)(=O)=O)cc4)CC3)cc2)cc1[N+](=O)[O-]` (stereo unspecified) showed a pEC50 of 6.34. In turn, `CN(C)CCC(CSc1ccccc1)Nc1ccc(S(=O)(=O)NC(=O)c2ccc(N3CCN(Cc4ccccc4-c4cccc(Cl)c4)CC3)cc2)cc1[N+](=O)[O-]` (stereo unspecified) showed a pEC50 of 6.75.

Turning to `CN(C)CCC(CSc1ccccc1)Nc1ccc(S(=O)(=O)NC(=O)c2ccc(N3CCC(=Cc4ccccc4C#N)CC3)cc2)cc1[N+](=O)[O-]` (stereo unspecified), the pEC50 is 5.96. As for `CN(C)CCC(CSc1ccccc1)Nc1ccc(S(=O)(=O)NC(=O)c2ccc(N3CCN(Cc4ccccc4C4CCCCC4)CC3)cc2)cc1[N+](=O)[O-]` (stereo unspecified), the pEC50 is 6.47. On to `CN(C)CCC(CSc1ccccc1)Nc1ccc(S(=O)(=O)NC(=O)c2ccc(N3CCN(Cc4ccccc4-c4ccc(C(F)(F)F)cc4)CC3)cc2)cc1[N+](=O)[O-]` (stereo unspecified), for which the pEC50 is 7.40. As to `COC1(Cc2ccccc2Br)CCN(c2ccc(C(=O)NS(=O)(=O)c3ccc(NC(CCN(C)C)CSc4ccccc4)c([N+](=O)[O-])c3)cc2)CC1` (stereo unspecified), the pEC50 is 7.00. For `CN(C)CCC(CSc1ccccc1)Nc1ccc(S(=O)(=O)NC(=O)c2ccc(N3CCN(Cc4ccccc4-c4ccccc4)CC3)cc2)cc1[N+](=O)[O-]` (stereo unspecified) the value was 7.75. Turning to `CN(C)CCC(CSc1ccccc1)Nc1ccc(S(=O)(=O)NC(=O)c2ccc(N3CCN(Cc4ccccc4NC4CCCCC4)CC3)cc2)cc1[N+](=O)[O-]` (stereo unspecified), the pEC50 was 6.18. `Cc1ccccc1CN1CCN(c2ccc(C(=O)NS(=O)(=O)c3ccc(NC(CCN(C)C)CSc4ccccc4)c([N+](=O)[O-])c3)cc2)CC1` (stereo unspecified) had a pEC50 of 6.39. `CN(C)CCC(CSc1ccccc1)Nc1ccc(S(=O)(=O)NC(=O)c2ccc(N3CCC(=Cc4ccccc4F)CC3)cc2)cc1[N+](=O)[O-]` (stereo unspecified) had a pEC50 of 6.60.

Take `COC1(Cc2ccccc2)CCN(c2ccc(C(=O)NS(=O)(=O)c3ccc(NC(CCN(C)C)CSc4ccccc4)c([N+](=O)[O-])c3)cc2)CC1` (stereo unspecified): the pEC50 is 6.17.

`CN(C)CCC(CSc1ccccc1)Nc1ccc(S(=O)(=O)NC(=O)c2ccc(N3CCN(Cc4ccccc4)CC3)cc2)cc1[N+](=O)[O-]` (stereo unspecified) showed a pEC50 of 5.96. In the case of `COC1(Cc2ccccc2-c2ccccc2)CCN(c2ccc(C(=O)NS(=O)(=O)c3ccc(NC(CCN(C)C)CSc4ccccc4)c([N+](=O)[O-])c3)cc2)CC1` (stereo unspecified), the pEC50 is 7.46. `CN(C)CCC(CSc1ccccc1)Nc1ccc(S(=O)(=O)NC(=O)c2ccc(N3CCC(=Cc4ccccn4)CC3)cc2)cc1[N+](=O)[O-]` (stereo unspecified) had a pEC50 of 6.26.

For the molecule `CN(C)CCC(CSc1ccccc1)Nc1ccc(S(=O)(=O)NC(=O)c2ccc(N3CCN(Cc4ccccc4-c4ccc(-c5ccccc5)cc4)CC3)cc2)cc1[N+](=O)[O-]` (stereo unspecified), the pEC50 is 7.66. In the case of `CN(C)CCC(CSc1ccccc1)Nc1ccc(S(=O)(=O)NC(=O)c2ccc(N3CCN(Cc4ccccc4-c4cccnc4)CC3)cc2)cc1[N+](=O)[O-]` (stereo unspecified), the pEC50 was 6.10. For `CSc1ccccc1CN1CCN(c2ccc(C(=O)NS(=O)(=O)c3ccc(NC(CCN(C)C)CSc4ccccc4)c([N+](=O)[O-])c3)cc2)CC1` (stereo unspecified) the value was 7.02. In the case of `COC1(CC(C)C)CCN(c2ccc(C(=O)NS(=O)(=O)c3ccc(NC(CCN(C)C)CSc4ccccc4)c([N+](=O)[O-])c3)cc2)CC1` (stereo unspecified), the pEC50 was 6.24. Take `COC1(Cc2ccccc2C)CCN(c2ccc(C(=O)NS(=O)(=O)c3ccc(NC(CCN(C)C)CSc4ccccc4)c([N+](=O)[O-])c3)cc2)CC1` (stereo unspecified): the negative logarithm of the EC50 (pEC50) was 6.82. With `COc1ccccc1C=C1CCN(c2ccc(C(=O)NS(=O)(=O)c3ccc(NC(CCN(C)C)CSc4ccccc4)c([N+](=O)[O-])c3)cc2)CC1` (stereo unspecified) the figure was 6.52. With `CN(C)CCC(CSc1ccccc1)Nc1ccc(S(=O)(=O)NC(=O)c2ccc(N3CCN(Cc4ccccc4-c4ccccc4Cl)CC3)cc2)cc1[N+](=O)[O-]` (stereo unspecified), the pEC50 is 7.25.

Take `COc1ccc(-c2ccccc2CN2CCN(c3ccc(C(=O)NS(=O)(=O)c4ccc(NC(CCN(C)C)CSc5ccccc5)c([N+](=O)[O-])c4)cc3)CC2)cc1` (stereo unspecified): the pEC50 was 7.52.

In the case of `COC1(Cc2ccc(Cl)cc2)CCN(c2ccc(C(=O)NS(=O)(=O)c3ccc(NC(CCN(C)C)CSc4ccccc4)c([N+](=O)[O-])c3)cc2)CC1` (stereo unspecified), the pEC50 was 6.40.

The molecule `COC1(CC2CCCCC2)CCN(c2ccc(C(=O)NS(=O)(=O)c3ccc(NC(CCN(C)C)CSc4ccccc4)c([N+](=O)[O-])c3)cc2)CC1` (stereo unspecified) gave a pEC50 of 6.50. On to `COC1(Cc2ccccc2F)CCN(c2ccc(C(=O)NS(=O)(=O)c3ccc(NC(CCN(C)C)CSc4ccccc4)c([N+](=O)[O-])c3)cc2)CC1` (stereo unspecified), for which the pEC50 is 6.75.

The molecule `COc1ccccc1CC1(OC)CCN(c2ccc(C(=O)NS(=O)(=O)c3ccc(NC(CCN(C)C)CSc4ccccc4)c([N+](=O)[O-])c3)cc2)CC1` (stereo unspecified) showed a pEC50 of 6.82. On to `COc1cccc(-c2ccccc2CN2CCN(c3ccc(C(=O)NS(=O)(=O)c4ccc(NC(CCN(C)C)CSc5ccccc5)c([N+](=O)[O-])c4)cc3)CC2)c1` (stereo unspecified), for which the pEC50 is 6.42.

In turn, `COC1(CC(C)(C)C)CCN(c2ccc(C(=O)NS(=O)(=O)c3ccc(NC(CCN(C)C)CSc4ccccc4)c([N+](=O)[O-])c3)cc2)CC1` (stereo unspecified) showed a pEC50 of 6.12.

As for `CN(C)CCC(CSc1ccccc1)Nc1ccc(S(=O)(=O)NC(=O)c2ccc(N3CCN(Cc4ccccc4C(F)(F)F)CC3)cc2)cc1[N+](=O)[O-]` (stereo unspecified), the pEC50 was 6.41. For `CN(C)CCC(CSc1ccccc1)Nc1ccc(S(=O)(=O)NC(=O)c2ccc(N3CCC(=Cc4ccc(C(F)(F)F)cc4)CC3)cc2)cc1[N+](=O)[O-]` (stereo unspecified), the pEC50 was 5.58. `CN(C)CCC(CSc1ccccc1)Nc1ccc(S(=O)(=O)NC(=O)c2ccc(N3CCC(=Cc4ccc(F)cc4)CC3)cc2)cc1[N+](=O)[O-]` (stereo unspecified) had a pEC50 of 6.42. For `COC1(Cc2cccc(Cl)c2)CCN(c2ccc(C(=O)NS(=O)(=O)c3ccc(NC(CCN(C)C)CSc4ccccc4)c([N+](=O)[O-])c3)cc2)CC1` (stereo unspecified), the pEC50 was 6.60. Molecule `CN(C)CCC(CSc1ccccc1)Nc1ccc(S(=O)(=O)NC(=O)c2ccc(N3CCC(=Cc4ccccc4-c4ccccc4)CC3)cc2)cc1[N+](=O)[O-]` (stereo unspecified) had a pEC50 of 6.80. For `COC1(Cc2ccc(-c3ccccc3)cc2)CCN(c2ccc(C(=O)NS(=O)(=O)c3ccc(NC(CCN(C)C)CSc4ccccc4)c([N+](=O)[O-])c3)cc2)CC1` (stereo unspecified), the pEC50 is 6.22. Molecule `CN(C)CCC(CSc1ccccc1)Nc1ccc(S(=O)(=O)NC(=O)c2ccc(N3CCC(=Cc4ccccc4C(F)(F)F)CC3)cc2)cc1[N+](=O)[O-]` (stereo unspecified) had a pEC50 of 6.82. `CN(C)CCC(CSc1ccccc1)Nc1ccc(S(=O)(=O)NC(=O)c2ccc(N3CCN(Cc4ccccc4S(C)(=O)=O)CC3)cc2)cc1[N+](=O)[O-]` (stereo unspecified): the pEC50 is 5.26. Consider `CN(C)CCC(CSc1ccccc1)Nc1ccc(S(=O)(=O)NC(=O)c2ccc(N3CCC(=Cc4ccc(Cl)cc4)CC3)cc2)cc1[N+](=O)[O-]` (stereo unspecified), for which the pEC50 was 6.21. For `COC1(Cc2ccccc2Cl)CCN(c2ccc(C(=O)NS(=O)(=O)c3ccc(NC(CCN(C)C)CSc4ccccc4)c([N+](=O)[O-])c3)cc2)CC1` (stereo unspecified) the value was 6.64.

The values above are taken from ChEMBL document CHEMBL1287643, “3D-QSAR pharmacophore modeling and in silico screening of new Bcl-xl inhibitors” (Eur J Med Chem, 2010).
